Assay results taken from ChEMBL document CHEMBL5241054, “Effective anti-aromatase therapy to battle against estrogen-mediated breast cancer: Comparative SAR/QSAR assessment on steroidal aromatase inhibitors” (Eur J Med Chem, 2020).

Key:
Aromatase [1] = target: T1, Aromatase (Homo sapiens, UniProt P11511)
T1 sequence (P11511 whole entry): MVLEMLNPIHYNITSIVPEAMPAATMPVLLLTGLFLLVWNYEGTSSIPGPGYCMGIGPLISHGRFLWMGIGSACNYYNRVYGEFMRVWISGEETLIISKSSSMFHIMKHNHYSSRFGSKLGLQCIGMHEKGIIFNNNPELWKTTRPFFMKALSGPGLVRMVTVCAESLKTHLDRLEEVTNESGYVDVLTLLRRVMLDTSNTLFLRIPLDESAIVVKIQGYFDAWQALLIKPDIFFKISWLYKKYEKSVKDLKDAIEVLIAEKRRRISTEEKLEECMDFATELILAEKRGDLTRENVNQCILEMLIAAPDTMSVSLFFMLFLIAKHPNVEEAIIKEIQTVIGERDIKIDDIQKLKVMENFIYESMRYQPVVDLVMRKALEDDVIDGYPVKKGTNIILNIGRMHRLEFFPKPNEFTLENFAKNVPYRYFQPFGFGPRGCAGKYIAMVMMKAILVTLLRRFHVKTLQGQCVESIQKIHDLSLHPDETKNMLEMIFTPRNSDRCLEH

Aromatase [2] = target: T1, Aromatase; remark: listed apart in the source

| Compound | IC50 (Aromatase [1]) | IC50 (Aromatase [2]) |
| --- | --- | --- |
| CCCCC(=O)O[C@@H]1C[C@@H]2[C@H](CC[C@]3(C)C(=O)CC[C@@H]23)[C@@]2(C)CCC(=O)C=C12 | 1500 nM |  |
| C[C@]12C=CC(=O)C=C1[C@H](Oc1ccccc1)C[C@@H]1[C@@H]2CC[C@]2(C)C(=O)CC[C@@H]12 | 16000 nM |  |
| CN1N=C2[C@H](C[C@H]3[C@@H]4CC[C@H]5C[C@@H](O)CC[C@]5(C)[C@H]4CC[C@]23C)[C@H]1c1ccccc1 | 6340 nM |  |
| CCOC1=C[C@@H]2[C@H](CC[C@]3(C)C(=O)CC[C@@H]23)[C@@]2(C)CCC(=O)C=C12 | 750 nM |  |
| C[C@]12CCC(=O)C=C1[C@@H](Oc1ccccc1)C[C@@H]1[C@@H]2CC[C@]2(C)C(=O)CC[C@@H]12 | 100 nM |  |
| C/C=C1\CC[C@@]2(C)[C@@H](CC[C@@H]3[C@@H]2CC[C@]2(C)C4=NN(C)[C@H](c5ccc(OC)cc5)[C@H]4C[C@@H]32)C1 | 3400 nM |  |
| COc1ccc([C@@H]2[C@H]3C[C@H]4[C@@H]5CC[C@H]6C[C@@H](OC(=O)C(F)(F)F)CC[C@]6(C)[C@H]5CC[C@]4(C)C3=NN2C(C)=O)cc1 | 6460 nM |  |
| CCCCCCC(=O)O[C@@H]1C[C@@H]2[C@H](CC[C@]3(C)C(=O)CC[C@@H]23)[C@@]2(C)CCC(=O)C=C12 | 1500 nM |  |
| C[C@]12C[C@@H](Br)C(=O)C=C1CC[C@@H]1[C@@H]2CC[C@]2(C)C(=O)CC[C@@H]12 | 2200 nM |  |
| COC1=C[C@@H]2[C@H](CC[C@]3(C)C(=O)CC[C@@H]23)[C@@]2(C)C=CC(=O)C=C12 | 800 nM |  |
| CCCCO[C@H]1C[C@@H]2[C@H](CC[C@]3(C)C(=O)CC[C@@H]23)[C@@]2(C)C=CC(=O)C=C12 | 661 nM |  |
| COc1ccc([C@@H]2[C@H]3C[C@H]4[C@@H]5CCC6=CC(=O)C=C[C@]6(C)[C@H]5CC[C@]4(C)C3=NN2C)cc1 | 2110 nM |  |
| C[C@]12C=CC(=O)C=C1C[C@H](c1ccc(N)cc1)[C@@H]1[C@@H]2CC[C@]2(C)C(=O)CC[C@@H]12 | 9.91 nM |  |
| C[C@@H]1C[C@@]2(C=O)C(=CC1=O)CC[C@@H]1[C@@H]2CC[C@]2(C)C(=O)CC[C@@H]12 | 12000 nM |  |
| CSC1=C2CC[C@@H]3[C@H](CC[C@]4(C)C(=O)CC[C@@H]34)[C@@]2(C)CCC1=O | 4400 nM |  |
| CCC(=O)O[C@H]1C[C@@H]2[C@H](CC[C@]3(C)C(=O)CC[C@@H]23)[C@@]2(C)CCC(=O)C=C12 | 210 nM |  |
| CC(=O)N1N=C2[C@H](C[C@H]3[C@@H]4CC[C@H]5CC(=O)CC[C@]5(C)[C@H]4CC[C@]23C)[C@H]1c1ccccc1 | 4910 nM |  |
| COc1ccc([C@H]2NN=C3[C@@H]2C[C@H]2[C@@H]4CC[C@H]5C[C@@H](O)CC[C@]5(C)[C@H]4CC[C@]32C)cc1 | 6820 nM |  |
| C[C@]12C=CC(=O)C=C1[C@@H](Oc1ccccc1)C[C@@H]1[C@@H]2CC[C@]2(C)C(=O)CC[C@@H]12 | 530 nM |  |
| CCC(=O)O[C@@H]1C[C@@H]2[C@H](CC[C@]3(C)C(=O)CC[C@@H]23)[C@@]2(C)CCC(=O)C=C12 | 2200 nM |  |

| Compound | IC50 (Aromatase [1]) | IC50 (Aromatase [2]) |
| --- | --- | --- |
| CCCCO[C@@H]1C[C@@H]2[C@H](CC[C@]3(C)C(=O)CC[C@@H]23)[C@@]2(C)C=CC(=O)C=C12 | 460 nM |  |
| CCO[C@@H]1C[C@@H]2[C@H](CC[C@]3(C)C(=O)CC[C@@H]23)[C@@]2(C)C=CC(=O)C=C12 | 560 nM |  |
| COc1ccc([C@@H]2[C@H]3C[C@H]4[C@@H]5CC[C@H]6CC(=O)CC[C@]6(C)[C@H]5CC[C@]4(C)C3=NN2C(C)=O)cc1 | 4890 nM |  |
| C[C@]12CCC(=O)C=C1[C@H](OCc1ccccc1)C[C@@H]1[C@@H]2CC[C@]2(C)C(=O)CC[C@@H]12 | 84.9 nM |  |
| C[C@]12CCC(=O)C[C@@H]1CC[C@@H]1[C@@H]2CC[C@]2(C)C3=NN(c4ccccc4)[C@H](c4ccccc4)[C@H]3C[C@@H]12 | 4270 nM |  |
| C[C@]12CC[C@H](O)C[C@@H]1CC[C@@H]1[C@@H]2CC[C@]2(C)C3=NN(c4ccccc4)[C@H](c4ccccc4)[C@H]3C[C@@H]12 | 6010 nM |  |
| C[C@]12C[C@@H](O)C(=O)C=C1CC[C@@H]1[C@@H]2CC[C@]2(C)C(=O)CC[C@@H]12 | 15300 nM |  |
| CCO[C@@H]1C[C@@H]2[C@H](CC[C@]3(C)C(=O)CC[C@@H]23)[C@@]2(C)CCC(=O)C=C12 | 500 nM |  |
| COc1ccc([C@H]2NN=C3[C@@H]2C[C@H]2[C@@H]4CC[C@H]5CC(=O)CC[C@]5(C)[C@H]4CC[C@]32C)cc1 | 4880 nM |  |
| C[C@@H]1C[C@@]2(CO)C(=CC1=O)CC[C@@H]1[C@@H]2CC[C@]2(C)C(=O)CC[C@@H]12 | 11000 nM |  |
| C/C=C1\CC[C@@]2(C)[C@@H](CC[C@@H]3[C@@H]2CC[C@]2(C)C4=NN(c5ccccc5)[C@H](c5ccccc5)[C@H]4C[C@@H]32)C1 | 3340 nM |  |
| COc1ccc([C@H]2NN=C3[C@@H]2C[C@H]2[C@@H]4CCC5=CC(=O)C=C[C@]5(C)[C@H]4CC[C@]32C)cc1 | 2910 nM |  |
| CCCC(=O)O[C@H]1C[C@@H]2[C@H](CC[C@]3(C)C(=O)CC[C@@H]23)[C@@]2(C)CCC(=O)C=C12 | 200 nM |  |
| CC(=O)N1N=C2[C@H](C[C@H]3[C@@H]4CCC5=CC(=O)C=C[C@]5(C)[C@H]4CC[C@]23C)[C@H]1c1ccccc1 | 2880 nM |  |
| C[C@]12CCC(=O)C(SCCl)=C1CC[C@@H]1C2=CC[C@]2(C)C(=O)CC[C@@H]12 | 859 nM |  |
| CSCSC1=C2CC[C@@H]3C(=CC[C@]4(C)C(=O)CC[C@@H]34)[C@@]2(C)CCC1=O | 1200 nM |  |
| C[C@]12C=CC(=O)C=C1C=C(CCc1ccccc1)[C@@H]1[C@@H]2CC[C@]2(C)C(=O)CC[C@@H]12 | 172 nM |  |
| CCC(=O)N1N=C2[C@H](C[C@H]3[C@@H]4CC[C@H]5C[C@@H](OC(=O)C(F)(F)F)CC[C@]5(C)[C@H]4CC[C@]23C)[C@H]1c1ccc(OC)cc1 | 6610 nM |  |
| C/C=C1\CC[C@@]2(C)[C@@H](CC[C@@H]3[C@@H]2CC[C@]2(C)C4=NN(c5ccccc5)[C@H](c5ccc(OC)cc5)[C@H]4C[C@@H]32)C1 | 3230 nM |  |
| COc1ccc([C@@H]2[C@H]3C[C@H]4[C@@H]5CC[C@H]6CC(=O)CC[C@]6(C)[C@H]5CC[C@]4(C)C3=NN2c2ccccc2)cc1 | 4160 nM |  |

| Compound | IC50 (Aromatase [1]) | IC50 (Aromatase [2]) |
| --- | --- | --- |
| CC(=O)N1N=C2[C@H](C[C@H]3[C@@H]4CC[C@H]5C[C@@H](OC(=O)C(F)(F)F)CC[C@]5(C)[C@H]4CC[C@]23C)[C@H]1c1ccccc1 | 6580 nM |  |
| CO[C@@H]1C[C@@H]2[C@H](CC[C@]3(C)C(=O)CC[C@@H]23)[C@@]2(C)C=CC(=O)C=C12 | 619 nM |  |
| CCCO[C@@H]1C[C@@H]2[C@H](CC[C@]3(C)C(=O)CC[C@@H]23)[C@@]2(C)CCC(=O)C=C12 | 550 nM |  |
| C[C@]12C=CC(=O)C=C1[C@H](OCc1ccccc1)C[C@@H]1[C@@H]2CC[C@]2(C)C(=O)CC[C@@H]12 | 150 nM |  |
| CCCCC(=O)O[C@H]1C[C@@H]2[C@H](CC[C@]3(C)C(=O)CC[C@@H]23)[C@@]2(C)CCC(=O)C=C12 | 140 nM |  |
| CCO[C@H]1C[C@@H]2[C@H](CC[C@]3(C)C(=O)CC[C@@H]23)[C@@]2(C)C=CC(=O)C=C12 | 1500 nM |  |
| COc1ccc([C@@H]2[C@H]3C[C@H]4[C@@H]5CC[C@H]6C[C@@H](OC(=O)C(F)(F)F)CC[C@]6(C)[C@H]5CC[C@]4(C)C3=NN2c2ccccc2)cc1 | 5450 nM |  |
| CC(=O)O[C@@H]1C[C@@H]2[C@H](CC[C@]3(C)C(=O)CC[C@@H]23)[C@@]2(C)C=CC(=O)C=C12 | 5000 nM |  |
| COC1=C[C@@H]2[C@H](CC[C@]3(C)C(=O)CC[C@@H]23)[C@@]2(C)CCC(=O)C=C12 | 700 nM |  |
| COc1ccc([C@@H]2[C@H]3C[C@H]4[C@@H]5CCC6=CC(=O)C=C[C@]6(C)[C@H]5CC[C@]4(C)C3=NN2C(C)=O)cc1 | 2650 nM |  |
| CN1N=C2[C@H](C[C@H]3[C@@H]4CC[C@H]5CC(=O)CC[C@]5(C)[C@H]4CC[C@]23C)[C@H]1c1ccccc1 | 4780 nM |  |
| COCSC1=C2CC[C@@H]3[C@H](CC[C@]4(C)C(=O)CC[C@@H]34)[C@@]2(C)CCC1=O | 10000 nM |  |
| C[C@]12C=CC(=O)C=C1C[C@@H](CCc1ccc([N+](=O)[O-])cc1)[C@@H]1[C@@H]2CC[C@]2(C)C(=O)CC[C@@H]12 | 14.9 nM |  |
| C[C@]12CCC(=O)C=C1C[C@@H](Cc1ccccc1)[C@@H]1[C@@H]2CC[C@]2(C)C(=O)CC[C@@H]12 |  | 328 nM |
| C[C@]12C=CC(=O)C=C1[C@H](Cc1ccccc1)C[C@@H]1[C@@H]2CC[C@]2(C)C(=O)CC[C@@H]12 |  | 590 nM |
| C[C@]12CCC(=O)C=C1[C@H](CCCCCc1ccccc1)C[C@@H]1[C@@H]2CC[C@]2(C)C(=O)CC[C@@H]12 |  | 450000 nM |
| C[C@]12CC[C@@H]3c4ccc(O)cc4[C@H](CCCc4ccccc4)C[C@H]3[C@@H]1CCC2=O |  | 30000 nM |
| CCCCC1=C[C@@]2(C)C(=CC1=O)CC[C@@H]1[C@@H]2CC[C@]2(C)C(=O)CC[C@@H]12 |  | 1840 nM |
